This note sets out measurements from patent US20240059691A1 (KALVISTA PHARMACEUTICALS LIMITED, priority 2020, published 2024).

Each structure is given as a SMILES string.

One assay concerns the target Human Factor XIIa (Homo sapiens (Human), UniProt P00748). Put plainly: Determination of FXIIa inhibition (fluorogenic substrate H-DPro-Phe-Arg-AFC, IC50 assay). Type of assay: biochemical. To be noted: substrate H-DPro-Phe-Arg-AFC at Km, 25° C.; class scale A-G. In short, it runs like this: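 IC50 derived from % remaining activity, taken as the linear fluorescence rate over a 5 min read at 25° C. Substrate H-DPro-Phe-Arg-AFC was used at its Km (Michaelis-Menten) with human FXIIa and serial compound dilutions, 25° C.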

Another assay concerns the target Plasma Kallikrein (Homo sapiens (Human), UniProt P03952). The assay can be described thus: Determination of related protease inhibition: Plasma Kallikrein (fluorogenic substrate at Km). Type of assay: biochemical. To be noted: 25° C., read-out: IC50 (human PKal). In short, it runs like this:
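Fluorogenic kinetic assay: human enzyme, substrate at Km, titrated inhibitor; 5 min read at 25 °C; IC50 from % of uninhibited rate.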

As a reminder, the IC50 is the point on the concentration scale where inhibition reaches its midpoint.

Sequence of Plasma Kallikrein (P03952 391-638): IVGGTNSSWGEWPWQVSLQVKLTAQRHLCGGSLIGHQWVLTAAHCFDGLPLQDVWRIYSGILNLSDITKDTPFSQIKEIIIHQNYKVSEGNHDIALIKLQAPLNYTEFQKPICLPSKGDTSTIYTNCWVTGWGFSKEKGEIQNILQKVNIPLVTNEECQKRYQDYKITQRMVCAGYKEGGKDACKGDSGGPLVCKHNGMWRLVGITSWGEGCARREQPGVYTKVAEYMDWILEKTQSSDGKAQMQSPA
Sequence of Plasma Kallikrein (P03952 20-390 partner): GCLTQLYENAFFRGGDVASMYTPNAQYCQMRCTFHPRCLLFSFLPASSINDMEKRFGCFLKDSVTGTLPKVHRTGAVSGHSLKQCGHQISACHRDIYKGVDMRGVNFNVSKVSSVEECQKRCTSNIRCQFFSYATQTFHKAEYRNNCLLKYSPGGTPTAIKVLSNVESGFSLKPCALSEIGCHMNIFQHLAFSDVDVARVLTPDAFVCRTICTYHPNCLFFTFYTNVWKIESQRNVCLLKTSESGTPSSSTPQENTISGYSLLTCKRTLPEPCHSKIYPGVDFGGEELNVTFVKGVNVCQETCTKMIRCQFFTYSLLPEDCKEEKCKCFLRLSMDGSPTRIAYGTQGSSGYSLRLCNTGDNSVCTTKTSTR
Sequence of Human Factor XIIa (P00748 373-615): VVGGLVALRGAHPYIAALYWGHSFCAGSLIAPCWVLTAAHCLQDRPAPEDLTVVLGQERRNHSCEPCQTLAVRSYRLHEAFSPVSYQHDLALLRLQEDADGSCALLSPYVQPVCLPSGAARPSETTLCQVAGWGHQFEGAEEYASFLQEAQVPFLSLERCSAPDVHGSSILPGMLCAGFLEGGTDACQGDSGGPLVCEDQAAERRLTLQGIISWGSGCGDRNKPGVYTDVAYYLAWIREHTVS

`Nc1nccc2c(N3CCCC3c3ccc(N4CCn5c(nnc5C(F)F)C4)nc3)cccc12` (stereo not drawn) [Example 10001, 5-(2-(6-(3-(difluoromethyl)-5,6-dihydro-[1,2,4]triazolo[4,3-a]pyrazin-7(8H)-yl)pyridin-3-yl)pyrrolidin-1-yl)isoquinolin-1-amine]: the results for the IC50 on Human Factor XIIa and on Plasma Kallikrein were 1 to 3 µM and greater than 40 µM, respectively.

As for `CN1CCC(COc2cc(CNc3ccc(F)c4c(N)nccc34)ccn2)CC1` [Example 4469, 8-fluoro-N5-((2-((1-methylpiperidin-4-yl)methoxy)pyridin-4-yl)methyl)isoquinoline-1,5-diamine], the IC50 against Human Factor XIIa is 3 to 10 µM; on Plasma Kallikrein, greater than 40 µM.

For `Nc1nccc2c(NCc3ccc(N4CCn5ccnc5C4CO)nc3)cccc12` (stereo not drawn) [Example 1140, (7-(5-(((1-aminoisoquinolin-5-yl)amino)methyl)pyridin-2-yl)-5,6,7,8-tetrahydroimidazo[1,2-a]pyrazin-8-yl)methanol], the IC50 against Human Factor XIIa is 3 to 10 µM; on Plasma Kallikrein, greater than 40 µM.

For the molecule `CN1CCC(CNc2ccc(CNc3cc(C(F)(F)F)cc4[nH]c(Cl)cc34)cn2)CC1` [Example 1262, 2-chloro-N-((6-(((1-methylpiperidin-4-yl)methyl)amino)pyridin-3-yl)methyl)-6-(trifluoromethyl)-1H-indol-4-amine], the concentration for half-maximal inhibition (IC50) on Human Factor XIIa lay within 1 to 3 µM; on Plasma Kallikrein, 3 to 10 µM.

For `Nc1nccc2c(NCc3cnc(NCCC(=O)N4CCCC4)nc3)cccc12` [Example 1039, 3-[(5-{[(1-aminoisoquinolin-5-yl)amino]methyl}pyrimidin-2-yl)amino]-1-(pyrrolidin-1-yl)propan-1-one], the IC50 against Human Factor XIIa is 10 to 40 µM; on Plasma Kallikrein, greater than 40 µM.

Consider `Nc1nccc2c(NCc3ccnc(N4CCn5ccnc5C4)c3)cccc12` [Example 5436, N5-((2-(5,6-dihydroimidazo[1,2-a]pyrazin-7(8H)-yl)pyridin-4-yl)methyl)isoquinoline-1,5-diamine], for which the IC50 at Human Factor XIIa is 10 to 40 µM; on Plasma Kallikrein, greater than 40 µM.

Regarding `Nc1ncc(Cl)c2cc(NCc3ccnc(OCC4CCn5ccnc5C4)c3)ccc12` (stereo not drawn) [Example 4300, 4-Chloro-N6-[[2-(5,6,7,8-tetrahydroimidazo[1,2-a]pyridin-7-ylmethoxy)-4-pyridyl]methyl]isoquinoline-1,6-diamine], the values for the IC50 at Human Factor XIIa and on Plasma Kallikrein were 0.1 to 0.3 µM and 10 to 40 µM, respectively.

Regarding `Nc1ncc(Cl)c2cc(NCc3cnc(NCC4CCn5ccnc5C4)nc3)ccc12` (stereo not drawn) [Example 1043, 4-chloro-6-N-{[2-({5H,6H,7H,8H-imidazo[1,2-a]pyridin-7-ylmethyl}amino)pyrimidin-5-yl]methyl}isoquinoline-1,6-diamine], the IC50 at Human Factor XIIa was 0.3 to 1 µM; on Plasma Kallikrein it was 3 to 10 µM.

In the case of `CNc1cc(NCc2ccc(NCC3CCN(C)CC3)nc2)ccn1` [Example 1219, N2-Methyl-N4-((6-(((1-methylpiperidin-4-yl)methyl)amino)pyridin-3-yl)methyl)pyridine-2,4-diamine], the results for the IC50 on Human Factor XIIa and on Plasma Kallikrein were 3 to 10 µM and greater than 100 µM, respectively.

As to `Nc1ncc(Cl)c2cc(NCc3ccnc(N4CCn5ccnc5C4)c3)ccc12` [Example 5437, 4-chloro-N6-((2-(5,6-dihydroimidazo[1,2-a]pyrazin-7(8H)-yl)pyridin-4-yl)methyl)isoquinoline-1,6-diamine], the results for the IC50 on Human Factor XIIa and at Plasma Kallikrein were 10 to 40 µM and greater than 40 µM, respectively.

With `Cc1cc(NCc2ccc(NCC3CCN(C)CC3)nc2)c2cc[nH]c2n1` [Example 1246, 6-methyl-N-((6-(((1-methylpiperidin-4-yl)methyl)amino)pyridin-3-yl)methyl)-1H-pyrrolo[2,3-b]pyridin-4-amine], the IC50 was 3 to 10 µM against Human Factor XIIa and greater than 40 µM on Plasma Kallikrein.

Regarding `CN1CCC(OCc2ccc(CN(C)c3ccc4c(N)nccc4c3)cc2)CC1` [Example 2190, N6-methyl-N6-(4-(((1-methylpiperidin-4-yl)oxy)methyl)benzyl)isoquinoline-1,6-diamine], the half-inhibitory concentration (IC50) was 1 to 3 µM against Human Factor XIIa and 3 to 10 µM on Plasma Kallikrein.
